Consider ten compounds from patent US11691969B2, “Pyridazinones as PARP7 inhibtors” (Ribon Therapeutics, Inc., priority 2019, dated 2023).

Chain of PARP7 (Q7Z3E1 whole entry): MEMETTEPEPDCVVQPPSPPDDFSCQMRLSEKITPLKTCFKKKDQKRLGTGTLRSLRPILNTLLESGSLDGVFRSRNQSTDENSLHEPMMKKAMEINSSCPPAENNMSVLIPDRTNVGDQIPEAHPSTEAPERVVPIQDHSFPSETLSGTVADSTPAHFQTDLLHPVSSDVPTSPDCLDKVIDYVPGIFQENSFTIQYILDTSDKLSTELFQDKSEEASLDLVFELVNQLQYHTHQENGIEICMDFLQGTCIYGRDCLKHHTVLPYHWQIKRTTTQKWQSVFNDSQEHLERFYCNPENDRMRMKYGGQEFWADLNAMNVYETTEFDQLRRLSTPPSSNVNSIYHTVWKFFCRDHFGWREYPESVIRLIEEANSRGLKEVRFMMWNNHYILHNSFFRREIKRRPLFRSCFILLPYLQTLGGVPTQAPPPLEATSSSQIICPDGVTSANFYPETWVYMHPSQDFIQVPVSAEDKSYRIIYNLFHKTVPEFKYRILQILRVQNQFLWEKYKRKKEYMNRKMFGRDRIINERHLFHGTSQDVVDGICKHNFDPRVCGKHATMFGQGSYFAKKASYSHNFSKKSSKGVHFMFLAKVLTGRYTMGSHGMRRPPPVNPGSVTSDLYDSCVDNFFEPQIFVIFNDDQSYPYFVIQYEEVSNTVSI

The experiment deals with PARP7 (Homo sapiens (Human), UniProt Q7Z3E1). The experiment is described as follows: TR-FRET assay: displacement of biotinylated Probe A from the TIPARP active site (Enzymatic Assay for Inhibition of PARP7). The experiment is classed as binding. The conditions noted are these: TIPARP 6 nM, Probe A 2 nM, 25° C. The gist of the method:
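6 nM His-tagged TIPARP and 2 nM biotinylated Probe A preincubated with compound 30 min at 25 °C in HEPES pH 8 buffer, then 4 nM ULight-anti-6×His and 0.25 nM Eu-streptavidin added for 30 min more. 665/615 nm ratio normalised to DMSO and 100 μM reference inhibitor controls; IC50 from 4-parameter fit.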
(In general: TR-FRET usually uses a lanthanide donor and a delayed reading to cut background.)
For the compound `C[C@@H](COCC(=O)N(C)C1CCN(c2cnc(C(F)(F)F)cn2)CC1)Nc1cn[nH]c(=O)c1C(F)(F)F` [Example 4, (S)—N-methyl-2-(2-(6-oxo-5-(trifluoromethyl)-1,6-dihydropyridazin-4-ylamino)propoxy)-N-(1-(5-(trifluoromethyl)pyrazin-2-yl)piperidin-4-yl)acetamide], the IC50 was < 100 nM. Turning to `C[C@@H](CO[C@@H]1C(=O)N(C2CCN(c3ncc(C(F)(F)F)cn3)CC2)CC1(C)C)Nc1cn[nH]c(=O)c1C(F)(F)F` [Example 35A, 5-(((S)-1-(((S)-4,4-dimethyl-2-oxo-1-(1-(5-(trifluoromethyl)pyrimidin-2-yl)piperidin-4-yl)pyrrolidin-3-yl)oxy)propan-2-yl)amino)-4-(trifluoromethyl)pyridazin-3(2H)-one], the IC50 was ≥ 1000 nM.

For `COC[C@@H](CO[C@@H]1CCN(C2CCN(c3cnc(C(F)(F)F)cn3)CC2)C1=O)Nc1cn[nH]c(=O)c1C(F)(F)F` [Example 18B], the IC50 is < 100 nM. Under `COC[C@@H](CO[C@H]1CCN(C2CCN(c3ncc(C(F)(F)F)cn3)CC2)C1=O)Oc1cn[nH]c(=O)c1C(F)(F)F` [Example 51A, 5-(((S)-1-methoxy-3-(((S)-2-oxo-1-(1-(5-(trifluoromethyl)pyrimidin-2-yl)piperidin-4-yl)pyrrolidin-3-yl)oxy)propan-2-yl)oxy)-4-(trifluoromethyl)pyridazin-3(2H)-one] stands 100 to 1000 nM; under `Cc1cnc(N2CCC(N3CC[C@@H](OC[C@H](C)Oc4cn[nH]c(=O)c4C(F)(F)F)C3=O)CC2)nc1` [Example 49B, 5-(((S)-1-(((R)-1-(1-(5-methylpyrimidin-2-yl)piperidin-4-yl)-2-oxopyrrolidin-3-yl)oxy)propan-2-yl)oxy)-4-(trifluoromethyl)pyridazin-3(2H)-one], < 100 nM; under `C[C@@H](CO[C@@H]1CCN([C@@H]2CCN(c3ncc(C(F)(F)F)cn3)C[C@@H]2F)C1=O)Nc1cn[nH]c(=O)c1C(F)(F)F` (single isomer, unassigned) [Example 39A], < 100 nM. In turn, `C[C@@H](CO[C@H]1CCN(C2CCN(c3cnc(C(F)F)cn3)CC2)C1=O)Nc1cn[nH]c(=O)c1C(F)(F)F` [Example 22A, 5-(((S)-1-(((S)-1-(1-(5-(difluoromethyl)pyrazin-2-yl)piperidin-4-yl)-2-oxopyrrolidin-3-yl)oxy)propan-2-yl)amino)-4-(trifluoromethyl)pyridazin-3(2H)-one] registered an IC50 of 100 to 1000 nM.

Turning to `Cc1cnc(N2CCC(N3CC[C@H](OC[C@H](C)Oc4cn[nH]c(=O)c4C(F)(F)F)C3=O)CC2)nc1` [Example 49A, 5-(((S)-1-(((S)-1-(1-(5-methylpyrimidin-2-yl)piperidin-4-yl)-2-oxopyrrolidin-3-yl)oxy)propan-2-yl)oxy)-4-(trifluoromethyl)pyridazin-3(2H)-one], the half-maximal inhibitory concentration (IC50) lay within 100 to 1000 nM. Under `C[C@@H](CO[C@@H]1CCN([C@H]2[C@@H]3CN(c4ncc(C(F)(F)F)cn4)C[C@@H]32)C1=O)Nc1cn[nH]c(=O)c1C(F)(F)F` [Example 43, 5-(((S)-1-(((R)-2-oxo-1-((1R,5S,6s)-3-(5-(trifluoromethyl)pyrimidin-2-yl)-3-azabicyclo[3.1.0]hexan-6-yl)pyrrolidin-3-yl)oxy)propan-2-yl)amino)-4-(trifluoromethyl)pyridazin-3(2H)-one] stands < 100 nM; under `C[C@@H](CO[C@H]1C(=O)N(C2CCN(c3ncc(C(F)(F)F)cn3)CC2)C[C@@H]1C)Nc1cn[nH]c(=O)c1C(F)(F)F` [Example 37B, 5-(((S)-1-(((3R,4S)-4-methyl-2-oxo-1-(1-(5-(trifluoromethyl)pyrimidin-2-yl)piperidin-4-yl)pyrrolidin-3-yl)oxy)propan-2-yl)amino)-4-(trifluoromethyl)pyridazin-3(2H)-one], < 100 nM.

The IC50 is the point on the concentration scale where inhibition reaches its midpoint.
